Entries after “also recorded” stand apart in the source; their conditions may differ.
Columns and labels:
[1] = test system: SH-SY5Y cells; assay: Neuroprotection against Aβ42-induced toxicity (MTT reduction); assay type: cell-based, human; details: 1 h pre-incubation + 24 h with Aβ42 1 µM, 4d at 3 µM
Experimental: (§1) SH-SY5Y human neuroblastoma cells (ATCC-CRL-2266) were kept in culture using Dulbecco’s Modified Eagle Medium (DMEM) (Gibco-Invitrogen, Life Technologies Ltd., Waltham, MA, USA) containing 10% heat-inactivated fetal bovine serum (FBS), 50 U mL^−1 penicillin and 50 μg mL^−1 streptomycin. Incubation of the cells occurred at 37 °C in 5% CO2. The toxicity of the compounds was tested through cell viability assays, with cells seeded with a density of 0.24 × 10^6 cells mL^−1. DMSO was used to dissolve each tested compound (4a–4d, 5a, 5b), affording stock solutions with concentrations of 25 mM. Aliquots of these solutions were stored at −20 °C. Concentrations from 1 μM to 10 μM were screened in order to select the highest non-toxic concentration of each compound. Consequently, compounds 4a, 4b and 5b were tested at 1 μM final concentration; compounds 4c and 5a were tested at 2 μM final concentration; compound 4d was tested at a final concentration of 3 μM. The DMSO concentrations in the culture media were lower than 0.05% (v/v) and the viability of the SH-SY5Y cells was not altered in a detectable manner. […]
(§2) The colorimetric MTT (3-(4,5-dimethylthiazol-2-yl)-2,5-diphenyltetrazolium bromide) reduction assay was used to determine cell viability. […] The absorbance of each well was measured at 570 nm. […]
(§3) All data were expressed as means ± SEMs of at least five independent experiments performed in duplicate. […]

[2] = Radical scavenging activity (DPPH method); details: read-out: Antioxid. EC50, 30 min, absorbance 517 nm
Experimental: To determine the radical scavenging activity (antioxidant activity) of the novel RIV–BIM hybrids, the DPPH method was performed as previously described in the literature [49]. Working solutions of 20 mg of the ligands were prepared daily in 10 mL of MeOH (with a 10% of DMSO). A working solution of 2 mg DPPH in 100 mL MeOH was prepared daily, and its absorbance was checked to be between 0.75 and 1.00 (a.u.). […] Each one of the calibrate points was kept for 30 min under darkness to allow the ligands to exert their antioxidant effects. After 30 min, an auto-zero was performed with MeOH in both sample and reference cells, using a UV–Vis spectrophotometer. […] The antioxidant activity (%AA) for each point was calculated using the following equation: %AA=ADPPH−Aligand/ADPPH×100
The radical scavenging activity of the RIV–BIM compounds was determined by a spectrophotometric method involving the 2,2-diphenyl-1-picrylhydrazyl (DPPH) free radical [35, 64].

[3] = test system: SH-SY5Y cells; assay: Neuroprotection against Fe/Ascorbate toxicity (MTT reduction); assay type: cell-based, human; details: 1 h pre-incubation + 24 h with Fe 2.5 mM/Asc 5 mM, 5a at 2 µM
Experimental: as §1, §2, §3

| SMILES | EC50 [2] [mM] | other results |
| --- | --- | --- |
| CCN(C)C(=O)Oc1ccc(CCCNC(=O)c2ccc3nc(-c4ccccc4O)[nH]c3c2)cc1 [Compound 4d, 4-(3-(2-(2-Hydroxyphenyl)-1H-benzo[d]imidazole-6-carboxamido)propyl) Phenyl Ethylmethylcarbamate] |  | Neuroprotective effect against Aβ42-induced toxicity (cell viability, MTT) [1]: significantly prevented Aβ-induced cell toxicity; also recorded: best neuroprotective capacities |
| CCN(C)C(=O)Oc1cccc(CNC(=O)c2ccc3nc(-c4ccccc4O)[nH]c3c2)c1 [Compound 4b, 3-((2-(2-Hydroxyphenyl)-1H-benzo[d]imidazole-6-carboxamido)methyl) Phenyl Ethylmethylcarbamate] | 0.9 ± 0.1 |  |
| CCN(C)C(=O)Oc1cccc(NC(=O)c2cccc3[nH]c(-c4ccccc4O)nc23)c1 [Compound 5a, 3-(2-(2-Hydroxyphenyl)-1H-benzo[d]imidazole-4-carboxamido)phenyl Ethylmethylcarbamate] |  | Neuroprotective effect against Fe/Ascorbate toxicity (cell viability, MTT) [3]: statistically significant neuroprotective effect; also recorded: best neuroprotective capacities |
| CCN(C)C(=O)Oc1cccc(CCNC(=O)c2ccc3nc(-c4ccccc4O)[nH]c3c2)c1 [Compound 4c, 3-(2-(2-(2-Hydroxyphenyl)-1H-benzo[d]imidazole-6-carboxamido)ethyl) Phenylethylmethylcarbamate] | 10 |  |
